Assay results reported in paper PMC10935252, “Synthesis and Biological Evaluation of New Dihydrofuro[3,2-b]piperidine Derivatives as Potent α-Glucosidase Inhibitors” (Molecules, 2024).

Target: α-glucosidase from yeast
Assay: α-Glucosidase inhibition assay
Format: biochemical, Baker’s yeast
Conditions: for IC50: substrate maltose 0.5 mM, pH 6.8, 37 °C, mean ± SD of three independent experiments, read-out: IC50 against α-glucosidase from yeast
Protocol: α-Glucosidase activity was assayed by the method reported, with minor modifications. […] The reaction mixture contained 150 μL of enzyme solution, 150 μL of inhibitor, and 150 μL of substrate (maltose). The substrate and α-glucosidase (Baker’s yeast) were purchased from Sigma-Aldrich Chemical (St. Louis, MO, USA). Both the inhibitor and the substrate were first dissolved in dimethylsulfoxide (DMSO) and then diluted with Na2HPO4/NaH2PO4 buffer for a final concentration of DMSO of 5%. The enzymatic reaction was started after incubation of the enzyme (0.04 U/mL) for 10 min in the presence of the inhibitor (five different concentrations) by the addition of the substrate (0.5 mM). The mixture was incubated at 37 °C for 60 min, and the reaction was quenched in boiling water for 10 min. The supernatant was taken to determine the content of glucose by means of the glucose oxidase method using a commercial glucose kit (Sichuan Mike Biotechnology Co., Ltd., Chengdu, China). The absorption at 505 nm was measured immediately and taken as the relative rate for the hydrolysis of the substrate. The blank control (the distilled water instead of sample and enzyme solution in the process) and the negative control (distilled water instead of sample solution in the process) were also prepared. Acarbose was used as the positive control. To calculate the inhibition rate (%), the following formula was used: (controlnegative − sample)/(controlnegative − controlblank) × 100%. The entire experiment was carried out in triplicate.

Row | SMILES | IC50 | times stronger activity than the positive control acarbose (ratio of IC50 values against α-glucosidase from yeast)
1 | C[C@]1(O)C[C@@H]2[C@@H](O1)[C@H](O)[C@H](O)CN2Cc1cccc(O)c1 [Compound 16, (2R, 3aR, 6R, 7R, 7aR)-2,6,7-trihydroxy-2-methyl-4-(3-hydroxylbenzyl)-3a,7a-Dihydrofuro[3,2-b]piperidine] | > 20 µM | –
2 | C[C@]1(O)C[C@@H]2[C@@H](O1)[C@H](O)[C@H](O)CN2Cc1ccc(O)c(Br)c1 [Compound 18, (2R, 3aR, 6R, 7R, 7aR)-2,6,7-trihydroxy-2-methyl-4-(3-bromo-4-hydroxylbenzyl)-3a,7a-Dihydrofuro[3,2-b]piperidine] | 5.5 ± 0.4 µM | –
3 | C[C@]1(O)C[C@@H]2[C@H](O1)[C@@H](O)[C@@H](O)CN2Cc1c(Cl)cc(O)cc1Cl [Compound 32, (2R, 3aR, 6S, 7S, 7aS)-2,6,7-trihydroxy-2-methyl-4-(2,6-dichloro-4-hydroxylbenzyl)-3a,7a-Dihydrofuro[3,2-b]piperidine] | 0.07 ± 0.01 µM | 30 times
4 | C[C@]1(O)C[C@@H]2[C@H](O1)[C@@H](O)[C@@H](O)CN2Cc1ccccc1O [Compound 26, (2R, 3aR, 6S, 7S, 7aS)-2,6,7-trihydroxy-2-methyl-4-(2-hydroxylbenzyl)-3a,7a-di-hydrofuro[3,2-b]piperidine] | > 20 µM | –
5 | C[C@]1(O)C[C@@H]2[C@H](O1)[C@@H](O)[C@@H](O)CN2Cc1ccc(O)cc1Cl [Compound 31, (2R, 3aR, 6S, 7S, 7aS)-2,6,7-trihydroxy-2-methyl-4-(2-chloro-4-hydroxylbenzyl)-3a,7a-Dihydrofuro[3,2-b]piperidine] | 1.8 ± 0.2 µM | –
6 | C[C@]1(O)C[C@@H]2[C@@H](O1)[C@H](O)[C@H](O)CN2Cc1ccc(O)c(Cl)c1 [Compound 17, (2R, 3aR, 6R, 7R, 7aR)-2,6,7-trihydroxy-2-methyl-4-(3-chloro-4-hydroxylbenzyl)-3a,7a-Dihydrofuro[3,2-b]piperidine] | 4.9 ± 0.2 µM | –
7 | CCOc1cc(CN2C[C@@H](O)[C@@H](O)[C@@H]3O[C@@](C)(O)C[C@H]32)ccc1O [Compound 23, (2R, 3aR, 6R, 7R, 7aR)-2,6,7-trihydroxy-2-methyl-4-(4-hydroxyl-3-ethyoxylbenzyl)-3a,7a-Dihydrofuro[3,2-b]piperidine] | 9 ± 0.6 µM | –
8 | C[C@]1(O)C[C@@H]2[C@H](O1)[C@@H](O)[C@@H](O)CN2Cc1ccc(O)c(Cl)c1 [Compound 28, (2R, 3aR, 6S, 7S, 7aS)-2,6,7-trihydroxy-2-methyl-4-(3-chloro-4-hydroxylbenzyl)-3a,7a-Dihydrofuro[3,2-b]piperidine] | 0.5 ± 0.1 µM | –
9 | C[C@]1(O)C[C@@H]2[C@H](O1)[C@@H](O)[C@@H](O)CN2Cc1cccc(O)c1 [Compound 27, (2R, 3aR, 6S, 7S, 7aS)-2,6,7-trihydroxy-2-methyl-4-(3-hydroxylbenzyl)-3a,7a-di-hydrofuro[3,2-b]piperidine] | 3.7 ± 0.1 µM | –
10 | CC(=O)C[C@H]1NC[C@@H](O)[C@@H](O)[C@@H]1O [Compound 6] | > 20 µM | –
11 | C[C@]1(O)C[C@@H]2[C@@H](O1)[C@H](O)[C@H](O)CN2Cc1ccccc1O [Compound 15, (2R, 3aR, 6R, 7R, 7aR)-2,6,7-trihydroxy-2-methyl-4-(2-hydroxylbenzyl)-3a,7a-Dihydrofuro[3,2-b]piperidine] | > 20 µM | –
12 | C[C@]1(O)C[C@@H]2[C@@H](O1)[C@H](O)[C@H](O)CN2Cc1ccc(O)cc1Cl [Compound 20, (2R, 3aR, 6R, 7R, 7aR)-2,6,7-trihydroxy-2-methyl-4-(2-chloro-4-hydroxylbenzyl)-3a,7a-Dihydrofuro[3,2-b]piperidine] | 4.4 ± 0.3 µM | –
13 | C[C@]1(O)C[C@@H]2[C@H](O1)[C@@H](O)[C@@H](O)CN2Cc1ccc(O)c(Br)c1 [Compound 29, (2R, 3aR, 6S, 7S, 7aS)-2,6,7-trihydroxy-2-methyl-4-(3-bromo-4-hydroxylbenzyl)-3a,7a-Dihydrofuro[3,2-b]piperidine] | 1.2 ± 0.1 µM | –
14 | C[C@]1(O)C[C@@H]2[C@@H](O1)[C@H](O)[C@H](O)CN2Cc1ccc(O)c(F)c1 [Compound 19, (2R, 3aR, 6R, 7R, 7aR)-2,6,7-trihydroxy-2-methyl-4-(3-fluoro-4-hydroxylbenzyl)-3a,7a-Dihydrofuro[3,2-b]piperidine] | 5.4 ± 0.3 µM | –
15 | CCOc1cc(CN2C[C@H](O)[C@H](O)[C@H]3O[C@@](C)(O)C[C@H]32)ccc1O [Compound 34, (2R, 3aR, 6S, 7S, 7aS)-2,6,7-trihydroxy-2-methyl-4-(4-hydroxyl-3-ethyoxylbenzyl)-3a,7a-Dihydrofuro[3,2-b]piperidine] | > 20 µM | –
16 | C[C@H]1O[C@H](O[C@H]2[C@H](O)[C@@H](O)[C@@H](O[C@H]3[C@H](O)[C@@H](O)C(O)O[C@@H]3CO)O[C@@H]2CO)[C@H](O)[C@@H](O)[C@@H]1N[C@H]1C=C(CO)[C@@H](O)[C@H](O)[C@H]1O (some centres unmarked) [Acarbose, reference compound] | 2 ± 0.2 µM | –
17 | C[C@]1(O)C[C@@H]2[C@@H](O1)[C@H](O)[C@H](O)CN2Cc1ccc(O)cc1 [Compound 14, (2R, 3aR, 6R, 7R, 7aR)-2,6,7-trihydroxy-2-methyl-4-(4-hydroxylbenzyl)-3a,7a-Dihydrofuro[3,2-b]piperidine] | 10 ± 0.7 µM | –
18 | C[C@]1(O)C[C@@H]2[C@@H](O1)[C@H](O)[C@H](O)CN2Cc1cc(Br)c(O)c(Br)c1 [Compound 24, (2R, 3aR, 6R, 7R, 7aR)-2,6,7-trihydroxy-2-methyl-4-(3,5-dibromo-4-hydroxyl-benzyl)-3a,7a-Dihydrofuro[3,2-b]piperidine] | 1.9 ± 0.2 µM | –
19 | C[C@]1(O)C[C@@H]2[C@@H](O1)[C@H](O)[C@H](O)CN2Cc1c(Cl)cc(O)cc1Cl [Compound 21, (2R, 3aR, 6R, 7R, 7aR)-2,6,7-trihydroxy-2-methyl-4-(2,6-dichloro-4-hydroxylbenzyl)-3a,7a-Dihydrofuro[3,2-b]piperidine] | 0.91 ± 0.1 µM | –
20 | C[C@]1(O)C[C@@H]2[C@@H](O1)[C@H](O)[C@H](O)CN2Cc1ccccc1Cl [Compound 13, (2R, 3aR, 6R, 7R, 7aR)-2,6,7-trihydroxy-2-methyl-4-(2-chlorobenzyl)-3a,7a-Dihydrofuro[3,2-b]piperidine] | 13 ± 0.5 µM | –
21 | C[C@]1(O)C[C@@H]2[C@H](O1)[C@@H](O)[C@@H](O)CN2Cc1ccc(O)c(F)c1 [Compound 30, (2R, 3aR, 6S, 7S, 7aS)-2,6,7-trihydroxy-2-methyl-4-(3-fluoro-4-hydroxylbenzyl)-3a,7a-Dihydrofuro[3,2-b]piperidine] | 2.6 ± 0.3 µM | –
22 | COc1cc(CN2C[C@H](O)[C@H](O)[C@H]3O[C@@](C)(O)C[C@H]32)ccc1O [Compound 33, (2R, 3aR, 6S, 7S, 7aS)-2,6,7-trihydroxy-2-methyl-4-(4-hydroxyl-methoxylbenzyl)-3a,7a-Dihydrofuro[3,2-b]piperidine] | > 20 µM | –
23 | C[C@]1(O)C[C@@H]2[C@H](O1)[C@@H](O)[C@@H](O)CN2Cc1ccc(O)cc1 [Compound 25, (2R, 3aR, 6S, 7S, 7aS)-2,6,7-trihydroxy-2-methyl-4-(4-hydroxylbenzyl)-3a,7a-di-hydrofuro[3,2-b]piperidine] | 8.3 ± 0.4 µM | –
24 | COc1cc(CN2C[C@@H](O)[C@@H](O)[C@@H]3O[C@@](C)(O)C[C@H]32)ccc1O [Compound 22, (2R, 3aR, 6R, 7R, 7aR)-2,6,7-trihydroxy-2-methyl-4-(4-hydroxyl-methoxylbenzyl)-3a,7a-Dihydrofuro[3,2-b]piperidine] | 10.5 ± 0.8 µM | –
25 | CC(=O)C[C@H]1NC[C@H](O)[C@H](O)[C@H]1O [Compound 12] | > 20 µM | –
